Test results reported in patent publication US20170056380A1, “Systems, Methods, Techniques, and Compounds in Research and Treatment of Portal Hypertension and other Conditions” (priority 2014, published 2017).

Legend:
[1] = system: NO production in sinusoidal endothelial cells; assay: NO measurement (nitrite in conditioned medium of sinusoidal endothelial cells); assay type: cell-based, rat
Description: Cell isolation and culture. Sinusoidal endothelial cells were isolated from male Sprague-Dawley rats (450-500 g) (Harlan, Indianapolis, Ind.). In brief, after in situ perfusion of the liver with 20 mg/100 mg pronase (Roche Molecular Biochemicals, Indianapolis, Ind.), followed by collagenase (Worthington Biochemical, Lakewood, N.J.), dispersed cell suspensions were removed from a layered discontinuous density gradient of 8.2 and 15.6% Accudenz (Accurate Chemical and Scientific, Westbury, N.Y.), further purified by centrifugal elutriation (18 ml/min flow), and were grown in medium containing 20% serum (10% horse/calf). The purity of endothelial cells was documented by their uptake of fluorescently labeled di-l-acetoacetylated low-density lipoprotein as described (21). Only primary sinusoidal endothelial isolates of >95% purity were used for study. Experiments were performed with cells frorrr a minimum three different isolations (for all experiments).
(§1) Animal model of liver injury and portal hypedension. Liver injury and portal hypertension were induced by performing bile duct ligation in 450- to 500-gram male retired breeder Sprague-Dawley rats as described in Liu and 20- to 25-gram male BALB/c mice. Briefly, bile duct ligation was performed by surgical isolation and ligation of the common bile duct. This model creates a portal-based fibrogenic response and portal hypertension 10-14 days after surgery (Liu). For study of injured sinusoidal endothelial cells, we used the rat model of bile duct ligation (10-14 days postsurgery); for in vivo study (primarily to conserve the use of active compound), we used the mouse model of bile duct ligation (examining portal pressure 4 wk postsurgery). In sham-operated rats or mice, laparotomy without isolation and section of the bile duct was performed. Studies were approved by the local Institutional Animal Care and Use Committees. Portal pressure measurement. Portal hypertension was induced in male BALB/c mice by bile duct ligation as above. Cicletanine (5 mg·kg^−1·day^−1) or vehicle was given by gavage as a single daily dose for 10 days before portal pressure measurement as described in Liue. In brief, mice were anesthetized, and an intravenous catheter (Becton Dickinson Vascular Access, Sandy, Utah) was introduced in the portal vein and secured with a silk tie. A calibrated low-pressure transducer (Digi-Med, Louisville, Ky.) was connected to the portal vein catheter, and portal pressure was recorded continuously using the Digi-Med Integrator 200 System (Digi-bled).
NO measurement. To assess NO production, we analyzed the release of nitrite, the stable breakdown product of NO, using a nitrite/nitrate assay kit (Cayman Chemicals, Ann Arbor, Mich.), following the manufacturer's instructions. Briefly, conditioned medium from sinusoidal endothelial cells with or without cicletanine treatment were loaded on a 96-well plate and mixed with both enzyme cofactor and nitrate reductase. After incubation at room temperature for 3 h, 100 μl Griess reagent mix were added to each well. After 10 more minutes at room temperature, the absorbance of each well was determined on a microplate reader at 540 nm, and the nitrite concentrations were deduced from a standard curve.

[2] = system: bile duct-ligated (BDL) mice; assay: Portal pressure measurement in bile duct-ligated and sham-operated mice; assay type: in vivo, BALB/c mice; conditions: 5 mg·kg−1·day−1 by gavage for 10 days
Description: as §1, with “In brief, mice were anesthetized, and an intravenous catheter (Becton Dickinson Vascular Access, Sandy, Utah) was introduced in the portal vein and secured with a silk tie.” left out

`Cc1ncc2c(c1O)COC2c1ccc(Cl)cc1` (stereo not shown) [cicletanine, 3-(4-chlorophenyl)-1,3-dihydro-7-hydroxy-6-methylfuro-(3,4-c) pyridine] was tested, and the “dose dependence of effect on nitrite production” value ([1]; 50 or 100 nM, 2 h) was “dose dependent”, the “nitrite levels in conditioned medium” value ([1]; 2 h exposure, normal sinusoidal endothelial cells) was “significantly increased” and the nitrite production ([1]; cells transduced with adenovirus 24 h, then cicletanine 100 nM 2 h) was “stimulated”. For the same compound, the “time at which nitrite levels started to increase” value ([1]; cicletanine 100 nM, 0-4 h) was 30 min, the nitrite production ([1]; sinusoidal endothelial cells injured by bile duct ligation, 2 h) was “increase” and the portal pressure ([2]; BDL mice) was “significantly reduced”. The portal pressure ([2]; sham-operated mice) was “Slight and nonsignificant decreases”.
